Data taken from patent US20220304918A1, “Oral Compositions Comprising Hops And Sweeteners” (The Proctor & Gamble Company, priority 2021, published 2022).
Where a SMILES comes first, the peptide text is derived from it.

Experiment: Peak sweetness intensity perception relative to sucrose (potency-normalized comparison)
Set-up: key: Quick: display a peak sweetness intensity faster than that experienced for sucrose; Slow: display a peak sweetness intensity slower than that experienced for sucrose
Conditions: sucrose as reference
Description: The sweeteners listed in TABLE 1 have been categorized with respect to their peak sweetness intensity perception relative to sucrose as either quick or slow. Those sweeteners that have been categorized as “quick” display a peak sweetness intensity faster than that experienced for sucrose. Those sweeteners that have been categorized as “slow” display a peak sweetness intensity slower than that experienced for sucrose. Comparisons of peak sweetness intensity are made using potency-normalized comparisons to account for the different amounts of each ingredient to experience the same absolute peak sweetness.

CC1=CC(=O)NS(=O)(=O)O1 [Acesulfame K]
Onset Speed Relative to Sucrose: Quick

COC(=O)[C@H](Cc1ccccc1)NC(=O)[C@@H](N)CC(=O)O [Aspartame] (H-Asp-Phe-OMe)
Onset Speed Relative to Sucrose: Slow

OC[C@@H](O)[C@@H](O)CO [Erythritol]
Onset Speed Relative to Sucrose: Quick

COC(=O)[C@H](Cc1ccccc1)NC(=O)[C@H](CC(=O)O)NCCC(C)(C)C [Neotame]
Onset Speed Relative to Sucrose: Slow

O=C1NS(=O)(=O)c2ccccc21 [Saccharin]
Onset Speed Relative to Sucrose: Quick

OC[C@@H](O)[C@@H](O)[C@H](O)[C@@H](O)CO [Sorbitol]
Onset Speed Relative to Sucrose: Quick

OC[C@H]1O[C@H](O[C@]2(CCl)O[C@H](CCl)[C@@H](O)[C@@H]2O)[C@H](O)[C@@H](O)[C@H]1Cl [Sucralose]
Onset Speed Relative to Sucrose: Slow

OC[C@@H](O)[C@H](O)[C@@H](O)CO [Xylitol]
Onset Speed Relative to Sucrose: Quick

Steviosides
Onset Speed Relative to Sucrose: Slow
